The test system of one series is NMRI male mice. Put plainly: Hot plate test in mice. Type of series: in vivo. To be noted: sc. The procedure:
Hot plate test in mice Method
A modification of method of Eddy et al. (1953) Eddy, N. B., Leimback D.: Synthetic analgesics II. Dithienylbutenyl and dithienylbutylamines. J. Pharmacol. Exp. Ther. 107 /1953/, 385 to 393 was used. NMRI male mice (20 to 25 g body weight) were dropped on a hot plate (56.0 ± 0.5°C) and the latency time elapsed until licking the forepaws was measured. The compounds were administered subcutaneously and 15, 30, 45 and 60 minutes later the reaction time was measured again. Animals were regarded as positive if they produced at least twice 2.5-fold reaction time extension as related to their control values.
On the technique in general: Thermal pain tests record how soon the animal reacts.

In series [1] the test system is mice. Put plainly: Acetic acid induced writhing test in mice. Type of series: in vivo. The method, then: Acetic acid induced writhing test in mice Method
Groups of 12 mice weighing 20 to 25 g were treated with 0.75% (v/v) acetic acid in a volume of 20 ml/kg administered intraperitoneally according to the method of Koster, R., Anderson, M., de Beer, E. J.: Acetic acid for analgesic screening, Fed. Proc. 18 [1959], 412. Between 5 and 10 minutes after the administration of acetic acid the total number of the typical "writhing" reactions was counted and expressed as percent inhibition compared to the concurrent controls. The test compounds were applied subcutaneously partly with a pretreatment period of 30 min. and partly without such. Statistical evaluation was performed by Student's t test and ID₅₀ values were determined by plotting the log-dose versus percentage response as compared to vehicle-treated animals. 10 mg/kg s.c. 17-(allyl)-4,5α-(epoxy)-3,14-di-(hydroxy)-morphinan-6-one {Naloxone} was administered 15 minutes before drug treatment.
Background: In writhing tests, fewer writhes than in controls are read as antinociception.

Series [2] relates to mice. The following applies: mouse, in vivo, sc, 5 mg/kg.
Setting [3] is: Mus musculus, hot plate 56.0 ± 0.5°C, subcutaneous, reaction time at 15, 30, 45 and 60 minutes, positive = at least twice 2.5-fold reaction time extension, read-out: ED50.

SMILES strings stand for the structures. Like-named read-outs stand apart in the source and are kept apart here.

As for `Clc1ccc([C@H]2C[C@H]3CC[C@@H]2N3)cn1` (racemic) [Example 6, Epi-epibatidine], in the series with NMRI male mice (mouse, in vivo), the ED50 was found to be 0.7 mg/kg s.c; the “analgesic potency, times stronger than that of codeine” value came to 13 times; the “analgesic potency, times stronger than that of morphine” value is recorded as 4 times. Further, in the series on mice [1] (mouse, in vivo), the “ID50 Pretreatment with 10 mg/kg naloxone s.c.” value (from here on “ID50 Pretreatment”) came out at 3.2 mg/kg s.c, the “ID50 Without pretreatment” value is on record as 2.6 mg/kg s.c and the “antagonism of the antinociception by naloxone” value was “inactive”. The lethality in mice entry in the series with mice [2] was “does not destroy mice”.
For `Fc1ccc([C@H]2C[C@H]3CC[C@@H]2N3)cc1` (racemic) [Example 12, (±)-endo-2β-[1'-(Fluoro)-phen-4'-yl]-7α-azabicyclo[2.2.1]heptane], the ED50 in the series on NMRI male mice (setting [3]) worked out at 2.1 mg/kg.
Regarding `Clc1ccc([C@H]2C[C@H]3CC[C@@H]2N3)cc1` (racemic) [Example 19, (±)-endo-2β-[1'-(Chloro)-phen-4'-yl]-7α-azabicyclo[2.2.1]heptane], the ED50 with NMRI male mice (setting [3]) came to 6.3 mg/kg.
Consider `COc1ccc([C@H]2C[C@H]3CC[C@@H]2N3)cn1` (racemic) [Example 26, (±)-endo-2β-[6'-(Methoxy)-pyrid-3'-yl]-7α-azabicyclo[2.2.1]heptane], for which the ED50 in the series on NMRI male mice (setting [3]) came to 3.1 mg/kg.
For the compound `c1cncc([C@H]2C[C@H]3CC[C@@H]2N3)c1` (racemic) [Example 33, (±)-endo-2β-[Pyrid-3'-yl]-7α-azabicyclo[2.2.1]heptane], in the series with NMRI male mice (setting [3]), the ED50 was roughly 10 mg/kg.
For the compound `Clc1ccc([C@H]2C[C@H]3CC[C@@H]2N3)c(Cl)c1` (racemic) [Example 42, (±)-endo-2β-[1',3'-Di-(chloro)-phen-4'-yl]-7α-azabicyclo[2.2.1]heptane], the ED50 with NMRI male mice (setting [3]) was determined as 1.8 mg/kg.
Turning to `COc1ccc([C@H]2C[C@H]3CC[C@@H]2N3)c(OC)c1` (racemic) [Example 48, (±)-endo-2β-[1',3'-Di-(methoxy)-phen-4'-yl]-7α-azabicyclo[2.2.1]heptane], in the series with NMRI male mice (setting [3]), the ED50 is 2.9 mg/kg.
Turning to `CCOc1ccc([C@H]2C[C@H]3CC[C@@H]2N3)cn1` (racemic) [Example 49, (±)-2β-[6'-(Ethoxy)-pyrid-3'-yl]-7α-azabicyclo[2.2.1]heptane], the ED50 with NMRI male mice (setting [3]) is 3.5 mg/kg.
In the case of `CN1CC[C@]23c4c5ccc(O)c4O[C@H]2[C@@H](O)C=C[C@H]3[C@H]1C5.Cl` [Reference substance A, Morphine-HCl], in the series with mice [1] (mouse, in vivo), the “ID50 Pretreatment” value is 46.8 mg/kg s.c, the “ID50 Without pretreatment” value stood at 0.6 mg/kg s.c and the “increase of ID50 value in antinociception after naloxone pretreatment” value was “about 80 fold”.
With `COc1ccc2c3c1O[C@H]1[C@@H](O)C=C[C@H]4[C@@H](C2)N(C)CC[C@@]341.Cl` [Reference substance B, Codeine-HCl], the ED50 in the series with NMRI male mice (setting [3]) was 9.4 mg/kg; in the series on mice [1] (Mus musculus, sc, 0.75% (v/v) acetic acid i.p., writhing counted between 5 and 10 minutes, no naloxone, read-out: ID50 Without pretreatment), 9.9 mg/kg. Further, the “ID50 Pretreatment” value with mice [1] (0.75% (v/v) acetic acid i.p., naloxone 10 mg/kg s.c. 15 minutes before drug treatment) was 45.4 mg/kg s.c. The “increase of ID50 value in antinociception after naloxone pretreatment” value with mice [1] (naloxone 10 mg/kg s.c. for 15 minutes) was roughly 5 fold.

Source of the values: EP0657455A1, “Epi-epibatidine derivatives, a process and intermediates for preparing them and epi-epibatidine and medicaments containing the epi-epibatidine derivatives and/or epi-epibatidine and the use of them” (priority 1993, dated 1995).
